No end group written: not given here.
Legend:
Test in all cases: biochemical
Format in all cases: binding
[1] = molecular target: HLA-A3.2 (A*0301) (Homo sapiens, UniProt P04439)
[2] = molecular target: HLA-A11 (A*1101) (Homo sapiens, UniProt P04439, A114D/D185E/E176A/F33Y/L180Q/S129P/T187R)
[3] = molecular target: A31 (A*3101) (Homo sapiens, UniProt P04439, A270S/D185E/E176V/E277Q/F33T/G231S/G80R/H175R/I121M/I218V/I322F/K168Q/L300P/L318F/M331R/P217A/Q94H/R138Q/T323A/T345S/T97I/V358M)
[4] = molecular target: A*3301 (Homo sapiens, UniProt P04439, A270S/D185E/E176V/E277Q/E87N/F33T/G231S/H175R/I121M/I218V/I322F/K168Q/K210R/L300P/L318F/M331R/P217A/Q86R/Q94H/R138Q/T323A/T345S/T97I/V358M/Y195H)
[5] = molecular target: A*6801 (Homo sapiens, UniProt P04439, A269V/D185E/E176V/E277Q/E87N/F33Y/G231S/I121M/I166T/I218V/L180W/L300P/L318F/N151K/P208A/P217A/Q86R/R169H/T345S)

Compound | IC50 [1] [µM] | IC50 [2] [µM] | IC50 [3] [µM] | IC50 [4] [µM] | IC50 [5] [µM]
CSCC[C@H](NC(=O)[C@@H](NC(=O)[C@H](C)N)[C@@H](C)O)C(=O)N[C@@H](CS)C(=O)N[C@@H](CCCCN)C(=O)N[C@@H](Cc1c[nH]cn1)C(=O)N[C@@H](Cc1ccc(O)cc1)C(=O)N[C@@H](CCCNC(=N)N)C(=O)N[C@@H](CCCNC(=N)N)C(=O)O [Peptide 88.0343] | 0.221 | 0.019 | 0.023 | 0.074 | 0.055
CSCC[C@H](NC(=O)[C@@H](N)CCCCN)C(=O)N[C@@H](Cc1ccccc1)C(=O)N[C@@H](CS)C(=O)N[C@@H](CCC(N)=O)C(=O)N[C@@H](CC(C)C)C(=O)N[C@@H](C)C(=O)N[C@@H](CCCCN)C(=O)O [Peptide 1556.52] | 0.037 | 0.022 | 0.41 | > 20 | 1.28
CC(C)C[C@H](NC(=O)[C@H](Cc1c[nH]cn1)NC(=O)[C@H](CO)NC(=O)[C@H](CO)NC(=O)[C@H](Cc1c[nH]cn1)NC(=O)[C@H](C)NC(=O)[C@@H](N)CCCNC(=N)N)C(=O)N[C@@H](CCCCN)C(=O)O [Peptide 1556.70] | 0.027 | 0.018 | 0.619 | > 20 | 2.88
AACWRSRRR [Peptide 78.0322] | 5.6 | 18.8 | 0.407 | 17.5 | > 20
AAEGVGAASR [Peptide 9017.0187] | > 20 | 0.478 | 3.27 | 5.1 | 0.45
AAFDLSFFLK [Peptide 9017.0189] | 0.009 | 0.0023 | 0.13 | – | 0.0019
AFDLSHFLK [Peptide 9017.0063] | 0.777 | 0.046 | 0.639 | 1.44 | 0.216
AFNSSHKGR [Peptide 88.0394] | > 20 | > 20 | 0.055 | – | > 20
AFRDLCIVYR [Peptide 78.0079] | 3.11 | 4.38 | 0.013 | 0.041 | 0.6
AILGHIVIPR [Peptide 9017.0224] | 0.031 | 0.048 | 0.002 | 0.102 | 0.042
AILGHIVRPR [Peptide 9017.0226] | 0.049 | 0.16 | 0.0071 | 0.24 | 0.234
AIVVWTIAY [Peptide 9017.0115] | 0.121 | 0.0092 | 3.19 | 5.23 | 7.19
ALFTAQEAK [Peptide 88.0323] | 0.028 | 0.013 | 2.66 | 16.1 | 0.603
ALKGLAQSK [Peptide 88.0416] | 0.065 | 1.66 | – | > 20 | > 20
ALTALIKPK [Peptide 9017.0098] | 0.024 | 0.019 | – | > 20 | 6.02
ALTALIKPKK [Peptide 9017.0229] | 0.529 | 0.43 | 0.901 | > 20 | 2.1
AQIEHWKLTR [Peptide 88.0226] | 2.07 | 0.063 | 0.293 | > 20 | 2.9
AQVLHVLKRK [Peptide 88.0141] | 0.161 | 0.104 | – | > 20 | 15.8
ATLQDIVLH [Peptide 78.0278] | 4.51 | 0.152 | – | > 20 | > 20
CFYSPALNK [Peptide 1556.43] | 0.127 | 0.074 | – | 0.122 | 1.45

Compound | IC50 [1] [µM] | IC50 [2] [µM] | IC50 [3] [µM] | IC50 [4] [µM] | IC50 [5] [µM]
CTELKLVYR [Peptide 78.0334] | > 20 | > 20 | 0.064 | – | 1.33
DSNACAFLK [Peptide 1587.33] | 1.42 | 0.303 | – | 0.039 | 0.068
ETNEALELK [Peptide 1556.68] | 16.8 | 0.093 | > 20 | – | 1.44
FLGAFKKFLK [Peptide 88.0169] | 0.0033 | 0.0096 | 0.011 | – | 0.275
FTAFLGAFK [Peptide 88.0362] | 0.031 | 0.0038 | – | 0.071 | 0.0054
FTAFLGAFKK [Peptide 88.0168] | 1.9 | 0.025 | > 20 | – | 0.02
GVEFISFLR [Peptide 1587.55] | > 20 | 0.44 | 0.124 | – | 0.048
GVIVMMLIR [Peptide 88.0376] | 2.38 | 0.434 | – | 0.214 | 2.77
GVMCRHYKR [Peptide 88.0388] | 2.89 | 0.08 | 0.037 | – | 0.093
GVSIEWRLRR [Peptide 9017.0220] | 7.78 | 0.468 | 0.189 | – | 4.42
IQIKRRQQK [Peptide 9012.0207] | 0.029 | 0.02 | – | > 20 | > 20
ITVYYGVPVWR [Peptide 1525.06] | 0.831 | 0.076 | 0.013 | – | 0.0054
IVGWPAVRER [Peptide 9017.0186] | 0.63 | 1.17 | 0.11 | – | 0.081
KAILGQVVR [Peptide 9017.0092] | 15.5 | 5.34 | – | > 20 | 0.159
KIDRLIDRIR [Peptide 9017.0249] | > 20 | > 20 | – | > 20 | > 20
KTLEERVKK [Peptide 78.0294] | 0.302 | 0.16 | – | > 20 | > 20
LLLIRFRCSK [Peptide 88.0164] | 0.205 | 6.98 | – | > 20 | 0.732
LQQLLFIHFR [Peptide 9017.0241] | 2.49 | 0.058 | 0.0013 | – | 0.081
LTALITPKK [Peptide 9017.0101] | 0.041 | 0.0042 | 4.5 | – | 0.0065
LVKMFCQLAK [Peptide 1556.50] | 1.2 | 0.189 | 3.34 | – | 0.221

Compound | IC50 [1] [µM] | IC50 [2] [µM] | IC50 [3] [µM] | IC50 [4] [µM] | IC50 [5] [µM]
MLIRYTCGK [Peptide 88.0377] | 0.034 | 0.014 | 1.22 | – | 0.015
MVIEPPKLR [Peptide 88.0360] | > 20 | 0.271 | 0.729 | – | 0.013
NTMDYTNWK [Peptide 88.0425] | 1.6 | 0.019 | > 20 | – | 0.013
QLVTQLMPK [Peptide 9012.0211] | 0.088 | 0.079 | > 20 | – | 2.26
QQMNMCQWIK [Peptide 88.0186] | 0.346 | 0.02 | – | 13.1 | 0.197
QVLHLLKRK [Peptide 88.0365] | 1.55 | 0.32 | – | 1.85 | 0.801
RILSTYLGR [Peptide 9017.0072] | 0.0075 | 0.0072 | 0.0016 | – | 0.457
RTHSSHLKSKK [Peptide 1556.76] | 0.059 | 0.0098 | – | 10.7 | 1.36
RTLTLLSVTK [Peptide 1556.13] | 0.023 | 0.015 | – | 6.76 | 0.219
RVHSSHLK [Peptide 1556.72] | 0.144 | 0.013 | 0.483 | – | 1.63
SLYGKTLEER [Peptide 78.0142] | 0.056 | 1.73 | – | 5.5 | 0.178
SQWIRFRCSK [Peptide 88.0147] | 0.415 | 0.13 | 0.373 | – | 11.8
STWHWTSDNK [Peptide 1589.22] | 0.161 | 0.017 | – | > 20 | 0.018
TLDVYMIMVK [Peptide 9012.0258] | 1.56 | 0.017 | – | > 20 | 2.03
VSYWGVYYIK [Peptide 1589.25] | 0.109 | 0.003 | – | 11.5 | 0.024
VTVYDGVPVWR [Peptide 1525.08] | 7.84 | 0.246 | – | 5.72 | 0.059
VTYHSETQR [Peptide 1589.10] | 0.029 | 0.022 | 0.066 | – | 0.032
WTIVYIEYRK [Peptide 9017.0243] | 4.89 | 0.037 | 1.35 | – | 0.00094

— US9340577B2, “HLA binding motifs and peptides and their uses” (priority 1992, dated 2016)
